The target of assay [1] is T1, Amine oxidase [copper-containing] 3 (Rattus norvegicus, UniProt O08590).
T1 sequence (O08590 whole entry): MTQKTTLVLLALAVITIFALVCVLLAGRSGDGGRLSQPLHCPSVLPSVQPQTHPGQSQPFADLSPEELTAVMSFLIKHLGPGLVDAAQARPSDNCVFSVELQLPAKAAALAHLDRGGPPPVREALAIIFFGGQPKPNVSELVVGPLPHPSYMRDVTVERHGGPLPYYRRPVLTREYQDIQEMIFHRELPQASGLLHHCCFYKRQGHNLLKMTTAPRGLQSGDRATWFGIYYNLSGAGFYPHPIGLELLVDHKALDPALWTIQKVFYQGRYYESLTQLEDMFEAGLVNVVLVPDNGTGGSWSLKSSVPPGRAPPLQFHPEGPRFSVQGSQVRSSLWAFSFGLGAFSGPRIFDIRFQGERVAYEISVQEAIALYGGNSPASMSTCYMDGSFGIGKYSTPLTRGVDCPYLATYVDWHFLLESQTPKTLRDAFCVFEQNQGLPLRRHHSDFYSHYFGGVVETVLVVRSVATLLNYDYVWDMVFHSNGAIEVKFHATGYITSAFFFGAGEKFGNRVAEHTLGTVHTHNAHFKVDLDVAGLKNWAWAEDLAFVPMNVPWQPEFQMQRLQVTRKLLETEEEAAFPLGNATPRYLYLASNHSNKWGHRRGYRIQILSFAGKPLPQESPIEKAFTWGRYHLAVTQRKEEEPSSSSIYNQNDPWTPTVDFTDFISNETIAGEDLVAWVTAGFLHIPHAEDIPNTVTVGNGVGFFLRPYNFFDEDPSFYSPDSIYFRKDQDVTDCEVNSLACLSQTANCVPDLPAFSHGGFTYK
The assay can be described thus: (§1) Inhibition Assay: A rat VAP-enzyme 1 (SSAO) activity was measured by a radiochemistry-enzymatic assay using 14C-benzylamine as an artificial substrate. An enzyme suspension prepared from CHO (Chinese Hamster Ovary) cells stably expressing a rat VAP-enzyme 1 (SSAO) was preincubated with the compound of the present invention in a 96-well microplate at room temperature for 30 minutes. Subsequently, the enzyme suspension was incubated with 14C-benzylamine (a final concentration of 1×10−5 mol/L) to a final volume of […] at 37° C. for 1 hour. The enzymatic reaction was stopped by the addition of 2 mol/L (50 μL) of citric acid. The oxidation products were extracted directly in a 200-μL toluene scintillator, and the radioactivity was measured with a scintillation spectrometer.

Assay [2] has as its target T2, Amine oxidase [copper-containing] 3 (Homo sapiens, UniProt Q16853).
T2 sequence (Q16853 whole entry): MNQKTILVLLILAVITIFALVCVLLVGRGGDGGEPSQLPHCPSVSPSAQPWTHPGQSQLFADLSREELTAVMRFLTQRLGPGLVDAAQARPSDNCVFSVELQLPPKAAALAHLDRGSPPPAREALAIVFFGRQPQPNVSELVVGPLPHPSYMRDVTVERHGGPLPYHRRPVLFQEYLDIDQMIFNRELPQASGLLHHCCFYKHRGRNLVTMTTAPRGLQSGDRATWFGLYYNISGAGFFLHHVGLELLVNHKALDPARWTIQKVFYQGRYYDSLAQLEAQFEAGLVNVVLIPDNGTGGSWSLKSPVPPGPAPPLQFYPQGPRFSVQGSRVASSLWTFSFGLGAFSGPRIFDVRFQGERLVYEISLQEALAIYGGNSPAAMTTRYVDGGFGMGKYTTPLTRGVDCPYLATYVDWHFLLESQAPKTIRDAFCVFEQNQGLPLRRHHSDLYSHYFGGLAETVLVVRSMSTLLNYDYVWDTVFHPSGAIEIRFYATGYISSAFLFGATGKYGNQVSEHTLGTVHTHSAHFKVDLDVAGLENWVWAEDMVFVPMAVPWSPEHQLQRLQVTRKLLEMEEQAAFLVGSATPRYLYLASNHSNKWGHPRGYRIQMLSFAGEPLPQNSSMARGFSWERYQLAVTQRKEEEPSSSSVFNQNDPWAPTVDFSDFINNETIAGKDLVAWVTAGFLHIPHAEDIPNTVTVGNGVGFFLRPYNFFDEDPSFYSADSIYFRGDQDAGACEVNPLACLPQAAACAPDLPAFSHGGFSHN
Described as §1, with “human VAP-1 enzyme” for “rat VAP-enzyme 1”.

Usually IC50 stands for the concentration that gives 50% inhibition.

The structures appear in SMILES notation.

`Cc1cc(CCC(=O)O)cnc1N1CCN(c2ncc(-c3cccc(CN(C)C(=O)CN)c3)cn2)CC1`: the IC50 in assay [1] amounted to 5.2 nM; in assay [2], 9.4 nM.
On to `C[C@@H]1CN(c2ncc(-c3cccc(CN(C)C(=O)CN)c3)cn2)C[C@H](C)O1`, for which the IC50 in assay [1] came out at 61 nM.

The values are drawn from ChEMBL document CHEMBL3639058, “Glycine compound” (2014).
